Measurements as given in article PMC12040169 (PLOS Biology, 2025).
In brackets after ≈: the same amount, converted by molar mass.

How the values were obtained:
[1] = in vitro; set-up: Viability of infected HeLa host cells, resazurin conversion, bulk resorufin fluorescence relative to DMSO; conditions: human, hela cells; bulk resorufin, mean of 3
[2] = system: T1, CTL2-GFP (C. trachomatis L2/434/Bu, GFP-expressing); test: microbe, parasite or virus in culture; set-up: species or system HeLa; C. trachomatis growth in HeLa, dose-response, mean of bulk GFP fluorescence and imaged total inclusion area; conditions: Chlamydia trachomatis, 28.5 h; mean of GFP and inclusion area
T1 construct: L2/434/Bu, GFP-expressing
Text: (§1) We screened a library of 36,785 small molecules displaying drug-like properties and covering a wide chemical space (Fig 1A and S2A Data). In this process, we also complemented the assay described above with an imaging-based readout (Fig 1B). After measurements of bulk GFP and resorufin fluorescence, cells were fixed, stained with the DNA dye Hoechst, and imaged at a high-content imaging platform to detect chlamydial inclusions (GFP) and host cell nuclei (Hoechst). The total area and number of inclusions in individual wells and the number of nuclei then served as additional proxies for chlamydial growth and host cell viability. […] MICs were calculated as described above.

[3] = system: T1, CTL2-GFP (C. trachomatis L2/434/Bu, GFP-expressing); test: microbe, parasite or virus in culture; set-up: C. trachomatis growth in HeLa, dose-response, mean of bulk GFP fluorescence and imaged total inclusion area; conditions: Chlamydia trachomatis, HeLa, 28.5 h; mean of GFP and inclusion area
Text: as §1

Compound	viability at 28.5 h, 0.000416667 µM [1]	viability at 28.5 h, 0.00125 µM [1]	viability at 28.5 h, 0.00375 µM [1]	viability at 28.5 h, 0.0123333 µM [1]	viability at 28.5 h, 0.037 µM [1]	viability at 28.5 h, 0.111 µM [1]	viability at 28.5 h, 0.333 µM [1]	viability at 28.5 h, 1 µM [1]	viability at 28.5 h, 3 µM [1]	viability at 28.5 h, 10 µM [1]	viability at 28.5 h, 30 µM [1]	MIC [2]	IC50 [3]
CC(Cc1nc(-c2nccn2C)cs1)n1cc(Cl)cn1 (stereo not shown) [c14e]	104%	110%	107%	105%	103%	106%	103%	111%	108%	110%	110%	3.65 µM (≈ 1.12 µg/mL)	1.03 µM
CCCN(CCC)CCc1cccc2c1CCN2C(=O)c1cc2ccccc2s1 [c15e]	87.3%	89.2%	89.8%	88.8%	85.5%	94.8%	94.4%	90.6%	91.2%	99.9%	91.3%	3.22 µM (≈ 1.31 µg/mL)	1.15 µM
CCOc1ccsc1C(=O)NC1Cc2ccccc2C1 [c16e]	89.7%	86.9%	89.9%	85.4%	87.1%	85.4%	87.5%	84.6%	84.5%	84.3%	87%	3.2 µM (≈ 0.92 µg/mL)	1.19 µM
Cc1ccc2[nH]c3c(c2c1)CCOC31CCN(Cc2ccccc2-c2ccccc2)CC1 [c22e]	98.6%	89.4%	94.8%	87.6%	94.6%	86.6%	87.8%	85.7%	85.7%	86.9%	70.7%	3.81 µM (≈ 1.61 µg/mL)	1.8 µM
CC(=O)N1CCc2sccc2C1c1ccccc1NCc1ccoc1 (stereo not shown) [c28e]	92.9%	92.5%	86%	93.2%	90.6%	89.2%	86.1%	90.6%	82.6%	87.9%	83%	5.24 µM (≈ 1.85 µg/mL)	2.6 µM
CCCCc1ccc(NC(=N)Nc2nc(C)cc(C)n2)cc1 [c33e]	90.9%	88%	91.3%	91.5%	93.1%	92.6%	94.3%	88.2%	98.2%	101%	112%	11.7 µM (≈ 3.49 µg/mL)	3.25 µM
FC(F)(F)CCN1CCC2(CC1)NCCc1c2[nH]c2ccc(Cl)cc12 [c34e]	86.8%	91.2%	88.2%	90.3%	88.5%	93.2%	89.1%	91.8%	88.3%	93.9%	71.8%	11.9 µM (≈ 4.42 µg/mL)	3.31 µM
O=C(CSc1nnc(-c2cccnc2)o1)c1ccccc1 [c35e]	99.4%	96.5%	91.9%	91.4%	87%	90.5%	87%	90.5%	84.4%	87%	88.7%	11.9 µM (≈ 3.54 µg/mL)	3.71 µM
COc1cccc(CNC(C(=O)O)c2ccc3c(c2)OCO3)c1 (stereo not shown) [c40e]	109%	98.4%	103%	95.7%	99.4%	102%	103%	104%	103%	99.7%	89.7%	10.8 µM (≈ 3.42 µg/mL)	4.96 µM
O=[N+]([O-])c1ccc(-n2cnc3ccccc32)c([N+](=O)[O-])c1 [c41e]	99%	96.9%	102%	101%	104%	97.8%	104%	99.3%	99%	101%	96.3%	11.2 µM (≈ 3.17 µg/mL)	5.2 µM
O=C(NCCc1c[nH]c2ccc(Cl)cc12)c1c(F)ccc(Cl)c1F [c42e]	100%	101%	98.1%	104%	99.6%	101%	106%	109%	107%	103%	107%	5.43 µM (≈ 2 µg/mL)	5.3 µM
Oc1c(CN2CCN(c3ccc(F)cc3)CC2)cc(Br)c2cccnc12 [c43e]	97.2%	91.7%	92.6%	88.5%	91.8%	86.8%	90%	86.1%	88.5%	84.3%	85.2%	9.58 µM (≈ 3.99 µg/mL)	5.48 µM
FC(F)(F)c1ccc(N2CCNCC2)nc1OCc1ccc2c(c1)OCCO2 [c46e]	85.8%	88.5%	88.8%	94.6%	90.4%	93.4%	88.9%	91.1%	94%	97.2%	11.7%	11.3 µM (≈ 4.47 µg/mL)	6.17 µM
